The values that follow come from patent publication US9814697B2, “Composition for nonalcoholic fatty liver disease (NAFLD)” (Cadila Healthcare Limited, priority 2013, dated 2017).

Data set [1] concerns subjects with biopsy proven NASH. The data set is described as follows: Prospective, multi-centric, open-label, single arm study in Non-alcoholic steatohepatitis: efficacy parameters. The data set is classed as in vivo, human. The protocol:
(§1) Title of the Study—“A prospective, multi-centric, open-label, single arm study to evaluate the safety and efficacy of 4 mg of magnesium salt of compound of formula (I) wherein R is -SMe in a pharmaceutical composition as described above in Non-alcoholic steatohepatitis.”
(§2) To evaluate the safety and efficacy of 4 mg of magnesium salt of compound of formula (I) wherein R is -SMe in Non-alcoholic steatohepatitis (NASH).
(§3) • Primary Efficacy (Time Frame 6 and 12 Weeks): • 1. Change in alanine aminotransferase (ALT) from baseline • Secondary Efficacy (Time Frame 6 and 12 Weeks): • Sustained reduction in ALT level. • C-peptide test for homeostasis model assessment (HOMA) beta and HOMA IR • Triglyceride (TG) Criteria for Safety: • 1. General and Systemic Clinical Examination: Cardiovascular system (CVS), respiratory system (RS), gastro-intestinal system (GIS), central nervous system (CNS) etc. • 2. Laboratory Investigations: Complete blood count (CBC), aspartate aminotransferase(AST), ALT, alkaline phosphatase (ALP), serum bilirubin, γ-glutamyl transpeptidase (GGT), Serum proteins, blood urea nitrogen (BUN), Serum creatinine, creatinine phosphokinase (CPK), fasting plasma glucose (FPG). • 3. Frequency and severity of adverse events (AEs) for all subjects enrolled were recorded. All AEs, were classified using • causality • severity • seriousness Methodology:
(§4) It is an interventional, single arm, safety and efficacy study to explore effect of magnesium salt of compound of formula (I) wherein R is -SMe suitably formulated as described above, on NASH.
Subjects was diagnosed by biopsy as suffering from NASH in last one year and willing to participate in study were invited for screening programme for inclusion in the study.
(§5) All subjects were given suitable formulation of magnesium salt of compound of formula (I) wherein R is -SMe 4 mg for 12 weeks. Lifestyle modification was continued as before the study. Patient was monitored for safety and efficacy of magnesium salt of compound of formula (I) wherein R is -SMe.
(§6) After Clinical evaluations, all baseline safety and efficacy parameters were recorded as per Table (I) given below. All laboratory investigations were carried out after overnight fasting.
(§7) Safety and efficacy parameters were assessed as per Table (I) given below.
Subjects were clinically examined and safety and efficacy parameters were assessed as per Table (I) given below. […]

Data set [2] shares this test system. The data set is described as follows: Prospective, multi-centric, open-label, single arm study in Non-alcoholic steatohepatitis: safety and tolerability. The data set is classed as in vivo, human. The protocol:
as §1, §2, §3, §4, §5, §6
Subjects were clinically examined and given the study medications for four weeks and also safety parameters were assessed as per Table (I)given below.
as §7
Subjects were clinically examined and safety and efficacy parameters were assessed as per Table (I) given below.
If further investigations are required in case of any AE, investigator will be advised to assess the AE and take necessary action, if required. Subjects will be advised to contact the investigator for any complaints within next two weeks. […]

Where [3] appears, read: 4 mg, Safety Population, at Week 3 and at Week 4 (so in the source), FIG. 2.
Setting [4] is: 4 mg, at 6 and 12 weeks, PP analysis, FIG. 3.
The mark [5] stands for this setting: 4 mg, during the study, mild, none considered clinically significant by the investigator.

With `CCO[C@@H](Cc1ccc(OCCn2c(C)ccc2-c2ccc(SC)cc2)cc1)C(=O)[O-].CCO[C@@H](Cc1ccc(OCCn2c(C)ccc2-c2ccc(SC)cc2)cc1)C(=O)[O-].[Mg+2]`, in data set [1] (4 mg for 12 weeks, NASH patients, PP population, visit 3 (week 6) and visit 4 (week 12), FIG. 1), the “Change in ALT levels from baseline” value is given as “statistically significant reduction”. For the same molecule, in data set [1] (4 mg, PP population, visit 3 (week 6)), the “Patients with sustained reduction in ALT levels” value is reported as 63.16 % of patients. For the same molecule, the “Patients with sustained reduction in ALT levels” value in data set [1] (4 mg, PP population, visit 4 (week 12)) was 78.95 % of patients. For the same molecule, in data set [1] (setting [3]), the “Change in Aspartate Transaminase” value is “statistical significant decrease”, the “Change in alkaline phosphatase” value is “statistical significant decrease” and the “Change in gamma-glutamyl transpeptidase” value is “statistical significant decrease”. For the same molecule, in data set [1] (setting [4]), the “Change in C peptide levels” value is “non-significant change”, the “Change in HOMA-Beta cell function” value is on record as “non-statistically significant reduction” and the “Change in HOMA-Insulin Resistance” value is “non-statistically significant reduction”. Besides, the “Decrease in triglyceride as compared to baseline” value in data set [1] (4 mg, patients with baseline TG<150 mg/dl, week 12, PP population, FIG. 4) is “not statistically significant”. Further, the “Decrease in serum triglycerides as compared to baseline” value in data set [1] (4 mg, patients with baseline TG≧150 mg/dl, week 6 and 12, PP population, FIG. 4) is on record as “not statistically significant”. The “Overall safety and tolerability” value in data set [2] (4 mg for 12 weeks, NASH patients) was “safe and well tolerated”. For the same molecule, in data set [2] (4 mg treatment arm), the “Changes from baseline in various laboratory parameters” value is “no persistent changes from baseline”, the “Deaths or SAEs reported” value is “no deaths or SAEs” and the “Overall incidence of AEs” value is “Nil”. Moreover, the “Change in weight compared to baseline” value in data set [2] (4 mg, NASH patients, visit 2, 3 and 4) is “no significant change in weight”. Moreover, in data set [2] (setting [5]), the “Events of raised CPK value” is reported as “five” and the “Events of raised creatinine” value is listed as “Few events”.
